Patent publication US6930115B2, “Antitumor effect potentiators” (Mitsubishi Pharma Corporation, priority 2000, dated 2005)

Tests used:
[1] = tested on: Mouse melanoma B16-F10 cells; test: Measurement of cell growth activity (MTT), in vitro growth of B16-F10 cells; format: cell-based; settings: for CI (Combination Index): median effect analysis; for average growth suppression rate ± standard error: MTT
Description: Mouse melanoma B16-F10 cells (the aforementioned) were cultured in MEM supplemented with 2 mM L-glutamine, 1 mM MEM non-essential amino acids, 1% MEM vitamins, 1 mM pyruvic acid and 5% FCS, and the cells were scraped off from the culture flask every 3-4 days with a cell scraper (No. 3010, manufactured by Coaster), diluted 10-fold and maintained by subculture. In the experiment examining the effect of the test substance on the cell growth, the B16-F10 cells maintained in vitro by subculture were recovered with a cell scraper, suspended in MEM supplemented with 10% FCS at 2×10^5 cells/mL and added to a 96 well microtest plate (Becton Dickinson) at 1×10^4 cells/50 μL/well. Furthermore, 50 μL of a test substance at a 2-fold concentration of the final concentration was added to the well, and cultured in a CO2 incubator (MCO-175, SANYO Electric Co., Ltd.) at 37° C., 5% CO2 95% air for 72 hr.
After culture, 10 mg/mL of MTT [(3-[4,5-Dimethylthiazol-2-yl]-2,5-diphenyl-tetrazolium bromide)] was added at 10 μL/well, which was followed by culture for 3 hr. Thereafter, 100 μL of 10% SDS (sodium dodecylsulfate)—0.01N HCl was added to dissolve the pigment and absorbance at 570 nm was measured with a multilabel counter (1420 ARVO SX, Pharmacia Biotech Corporation). According to the concentration of the test substance, each well was expressed by absorbance, and average value and standard error. Using the well, to which the medium alone was added, as a control, the growth inhibition rate was calculated according to the following formula. [formula] Analysis method: Based on the dose reaction curves of the inventive compound alone treatment group and cisplatin alone treatment group, the combination index (CI) of the action in concomitant use is calculated by median effect analysis (References and [2]). (Results)

[2] = tested on: mouse B16-F10 melanoma cultured cells; test: Hematogenous pulmonary metastasis after transplantation of mouse B16-F10 melanoma cultured cells into tail vein; format: in vivo; settings: for CI (Combination Index): Median Effect Analysis, CI below 1 = synergistic
Description: • (1) Preparation of mouse B16-F10 melanoma cultured cells (hereinafter simply B16-F10) B16-F10 cells (a permission to use was obtained from US M.D. Anderson Cancer Center, Dr. I. Fidler and provided for use from Japanese Foundation for cancer research·cancer chemotherapy center, Dr. […] For experiment, B16-F10 cells were suspended in MEM at 5×10^5 cells/mL and 0.2 mL thereof was transferred into the tail vein of 8-week-old male C57BL/6 mice (8 per group). […] Alzet, model 1002, flow rate […], for use for 14 days), and the osmotic pump was intraperitoneally transplanted into the mice one day before the transplantation of B16-F10 cells. • (3) As regards cisplatin, a preparation for injection (product name: Randa injection) was diluted with physiological saline and intraperitoneally administered once the day after transplantation of B16-F10 cells. As regards etoposide, a preparation for injection (product name: […] injection) was diluted with physiological saline and repeatedly administered intraperitoneally once a day for 5 days starting from one day after transplantation of B16-F10 cells. Paclitaxel was purchased from Sigma chemicals Co., suspended in 0.5% metolose solution and repeatedly administered intraperitoneally once every other day (3 times/week for 2 weeks) starting from one day after transplantation of B16-F10 cells. […] In addition, the values of combination index (CI) of the action in concomitant use analyzed by Median Effect Analysis (References and [2]) with regard to the combination group of the compound of the present invention and the anticancer agent are summarized in Table 3 and Table 6.

SMILES: C[C@@H](N)c1ccc(C(=O)Nc2ccncc2)cc1.Cl [compound of the present invention, (R)-(+)-N-(4-pyridyl)-4-(1-aminoethyl)benzamide HCl]
- CI (Combination Index) ([1]; compound 0.3 μM + cisplatin 10 μM): 0.4293
- CI (Combination Index) ([1]; compound 1 μM + cisplatin 10 μM): 0.4656
- CI (Combination Index) ([1]; compound 3 μM + cisplatin 10 μM): 0.4478
- CI (Combination Index) ([1]; compound 10 μM + cisplatin 10 μM): 0.4403
- CI (Combination Index) ([1]; compound 30 μM + cisplatin 10 μM): 0.5071
- CI (Combination Index) ([1]; compound 100 μM + cisplatin 10 μM): 0.3558
- average growth suppression rate ± standard error ([1]; compound 0.1 (no unit in Table 7; μM in Table 8) alone, 72 hr culture): 4.389 ± 3.094%
- average growth suppression rate ± standard error ([1]; compound 0.3 (no unit in Table 7; μM in Table 8) alone, 72 hr culture): 5.196 ± 0.214%
- average growth suppression rate ± standard error ([1]; compound 0.3 in combination with cisplatin 10 μM, 72 hr, NS (p = 0.1293) vs. cisplatin (10 μM) alone): 17.200 ± 11.245%
- average growth suppression rate ± standard error ([1]; compound 1 (no unit in Table 7; μM in Table 8) alone, 72 hr culture): 7.877 ± 0.727%
- average growth suppression rate ± standard error ([1]; compound 1 in combination with cisplatin 10 μM, 72 hr, NS (P = 0.1236) vs. cisplatin (10 μM) alone): 17.319 ± 4.397%
- average growth suppression rate ± standard error ([1]; compound 3 (no unit in Table 7; μM in Table 8) alone, 72 hr culture): 10.012 ± 1.459%
- average growth suppression rate ± standard error ([1]; compound 3 in combination with cisplatin 10 μM, 72 hr, p = 0.0028 vs. cisplatin (10 μM) alone): 26.406 ± 8.364%
- average growth suppression rate ± standard error ([1]; compound 10 (no unit in Table 7; μM in Table 8) alone, 72 hr culture): 10.700 ± 0.365%
- average growth suppression rate ± standard error ([1]; compound 10 in combination with cisplatin 10 μM, 72 hr, p = 0.0000 vs. cisplatin (10 μM) alone): 43.796 ± 5.446%
- average growth suppression rate ± standard error ([1]; compound 30 (no unit in Table 7; μM in Table 8) alone, 72 hr culture): 22.657 ± 4.784%
- average growth suppression rate ± standard error ([1]; compound 30 in combination with cisplatin 10 μM, 72 hr, p = 0.0000 vs. cisplatin (10 μM) alone): 90.320 ± 2.220%
- average growth suppression rate ± standard error ([1]; compound 100 (no unit in Table 7; μM in Table 8) alone, 72 hr culture): 57.960 ± 8.575%
- average growth suppression rate ± standard error ([1]; compound 100 in combination with cisplatin 10 μM, 72 hr, p = 0.0000 vs. cisplatin (10 μM) alone): 96.180 ± 0.164%
- T/C±standard error (average number of pulmonary metastatic colonies of administration group/control group ×100) ([2]; Table 1, compound 1 mg/kg oral administration once a day for 14 days, alone): 77.1 ± 10.0%
- T/C±standard error (average number of pulmonary metastatic colonies of administration group/control group ×100) ([2]; Table 1, compound 1 mg/kg oral once a day for 14 days in combination with cisplatin 5 mg/kg intraperitoneally once): 13.4 ± 1.4%
- T/C±standard error (average number of pulmonary metastatic colonies of administration group/control group ×100) ([2]; Table 1, compound 1 mg/kg oral once a day for 14 days in combination with cisplatin 10 mg/kg intraperitoneally once, p < 0.01 vs. cisplatin (10 mg/kg) alone): 19.5 ± 3.0%
- T/C±standard error (average number of pulmonary metastatic colonies of administration group/control group ×100) ([2]; Table 1, compound 3 mg/kg oral administration once a day for 14 days, alone): 65.2 ± 3.7%
- T/C±standard error (average number of pulmonary metastatic colonies of administration group/control group ×100) ([2]; Table 1, compound 3 mg/kg oral once a day for 14 days in combination with cisplatin 5 mg/kg intraperitoneally once): 14.4 ± 2.0%
- T/C±standard error (average number of pulmonary metastatic colonies of administration group/control group ×100) ([2]; Table 1, compound 3 mg/kg oral once a day for 14 days in combination with cisplatin 10 mg/kg intraperitoneally once, p < 0.01 vs. cisplatin (10 mg/kg) alone): 16.5 ± 1.4%
- T/C±standard error (average number of pulmonary metastatic colonies of administration group/control group ×100) ([2]; Table 2, compound 0.3 mg/kg by intraperitoneal osmotic pump (14 days), alone): 73.4 ± 10.1%
- T/C±standard error (average number of pulmonary metastatic colonies of administration group/control group ×100) ([2]; Table 2, compound 0.3 mg/kg by osmotic pump in combination with cisplatin 10 mg/kg intraperitoneally once): 12.1 ± 2.1%
- T/C±standard error (average number of pulmonary metastatic colonies of administration group/control group ×100) ([2]; Table 2, compound 1 mg/kg by intraperitoneal osmotic pump (14 days), alone): 69.9 ± 7.7%
- T/C±standard error (average number of pulmonary metastatic colonies of administration group/control group ×100) ([2]; Table 2, compound 1 mg/kg by osmotic pump in combination with cisplatin 10 mg/kg intraperitoneally once): 13.0 ± 1.8%
- T/C±standard error (average number of pulmonary metastatic colonies of administration group/control group ×100) ([2]; Table 2, compound 3 mg/kg by intraperitoneal osmotic pump (14 days), alone): 63.5 ± 7.7%
- T/C±standard error (average number of pulmonary metastatic colonies of administration group/control group ×100) ([2]; Table 2, compound 3 mg/kg by osmotic pump in combination with cisplatin 10 mg/kg intraperitoneally once, P < 0.05 vs. cisplatin (10 mg/kg) alone): 11.1 ± 1.4%
- T/C±standard error (average number of pulmonary metastatic colonies of administration group/control group ×100) ([2]; Table 4, compound 1 mg/kg oral administration once a day for 14 days, alone): 83.4 ± 10.8%
- T/C±standard error (average number of pulmonary metastatic colonies of administration group/control group ×100) ([2]; Table 4, compound 1 mg/kg oral in combination with etoposide 5 mg/kg intraperitoneally once a day for 5 days, P < 0.05 vs. etoposide (5 mg/kg) alone): 22.0 ± 4.8%
- T/C±standard error (average number of pulmonary metastatic colonies of administration group/control group ×100) ([2]; Table 4, compound 3 mg/kg oral administration once a day for 14 days, alone): 70.5 ± 4.0%
- T/C±standard error (average number of pulmonary metastatic colonies of administration group/control group ×100) ([2]; Table 4, compound 3 mg/kg oral in combination with etoposide 5 mg/kg intraperitoneally once a day for 5 days, P < 0.01 vs. etoposide (5 mg/kg) alone): 19.2 ± 2.8%
- T/C±standard error (average number of pulmonary metastatic colonies of administration group/control group ×100) ([2]; Table 5, compound 1 mg/kg oral administration once a day for 14 days, alone): 69.8 ± 9.0%
- T/C±standard error (average number of pulmonary metastatic colonies of administration group/control group ×100) ([2]; Table 5, compound 1 mg/kg oral in combination with paclitaxel 5 mg/kg intraperitoneally once every other day, P < 0.05 vs. paclitaxel (5 mg/kg) alone): 20.6 ± 2.6%
- T/C±standard error (average number of pulmonary metastatic colonies of administration group/control group ×100) ([2]; Table 5, compound 3 mg/kg oral administration once a day for 14 days, alone): 59.0 ± 3.3%
- T/C±standard error (average number of pulmonary metastatic colonies of administration group/control group ×100) ([2]; Table 5, compound 3 mg/kg oral in combination with paclitaxel 5 mg/kg intraperitoneally once every other day, P < 0.01 vs. paclitaxel (5 mg/kg) alone): 16.3 ± 3.0%
- number of pulmonary metastatic colonies of B16-F10 cells ([2]; combination group with cisplatin as compared to the cisplatin alone administration group (p<0.01 or p<0.05, Dunnett's test)): significantly decreased
- number of pulmonary metastatic colonies of B16-F10 cells ([2]; combination group with etoposide as compared to the etoposide alone administration group (p<0.01 or p<0.05 Dunnett's test)): significantly decreased
- number of pulmonary metastatic colonies of B16-F10 cells ([2]; combination group with paclitaxel as compared to the paclitaxel alone administration group (p<0.01 or p<0.05 Dunnett's test)): significantly decreased
- CI (Combination Index) ([2]; compound 0.3 mg/kg osmotic pump + cisplatin 10 mg/kg): 0.19
- CI (Combination Index) ([2]; compound 1 mg/kg oral + Etoposide (5 mg/kg)): 0.42
- CI (Combination Index) ([2]; compound 1 mg/kg oral + Paclitaxel (5 mg/kg)): 0.63
- CI (Combination Index) ([2]; compound 1 mg/kg oral administration + cisplatin 10 mg/kg): 0.12
- CI (Combination Index) ([2]; compound 1 mg/kg osmotic pump + cisplatin 10 mg/kg): 0.21
- CI (Combination Index) ([2]; compound 3 mg/kg oral + Etoposide (5 mg/kg)): 0.34
- CI (Combination Index) ([2]; compound 3 mg/kg oral + Paclitaxel (5 mg/kg)): 0.34
- CI (Combination Index) ([2]; compound 3 mg/kg oral administration + cisplatin 10 mg/kg): 0.09
- CI (Combination Index) ([2]; compound 3 mg/kg osmotic pump + cisplatin 10 mg/kg): 0.17
- CI value of the action in concomitant use ([2]; compound and cisplatin used in combination, every dose (Table 3)): lower than 1
- combination index of the action in concomitant use ([2]; compound and etoposide used in combination (Table 6)): lower than 1
- combination index of the action in concomitant use ([2]; compound and paclitaxel used in combination (Table 6)): lower than 1
